From patent publication US5994342A, “3-(substituted methyl)-4-oxa-1-azabicyclo[3.2.0]heptan-7-one derivatives useful as antitumor agents” (priority 1994, dated 1999)
Converted amounts (≈) assume the structure as drawn. Counter-ions that a name gives are not always drawn.

System: KB cells
Experiment: In vitro KB cell cytotoxicity assay (crystal violet)
Type: cell-based
Settings: Homo sapiens, 72 h, 3 days culture, read-out: KB Cell Cytotoxicity TD50
Description: In Vitro KB Cell Cytotoxicity Assay In vitro KB cell cytoxocity assay was done by modification of the crystal violet assay ([…] et al., Anal Biochem., 159, 109-113 (1986). KB cells were cultivated in Eagles minimum essential medium supplemented with 10% calf serum and incubated at 37° C. in a humidified 5% CO2 atmosphere to prepare a cell stock. Cells were counted using a neubauer hemocytometer and seeded in 96 well plates at 100 μl of 3×10^4 cells/ml and cultured for one day. […] Control wells were identical except that test compound was absent. These were cultured for three days. Then the cells were fixed with addition of 20 μl of 25% glutaraldehyde for 15 minutes, washed with water and dried. Then stained with 100 μl of 0.05% crystal violet for 15 minutes, washed with water and dried. The wells are eluted with […] of 0.05M NaH2 PO4 /ethanol (1:1 v/v) and read at OD540 on a multiscan spectrophotometer. Inhibition value of cell growth was calculated based on optical density using the following equation; [formula] TD50 values were calculated from linear regression ines of the log-logit plot.

Q: Which IC50 does the source give for `C#CC(=O)NC[C@@H]1CN2C(=O)C[C@H]2O1` (racemic) [Example 20, (3RS,5RS)-3-[N-Propynoylaminomethyl]-4-oxa-1-azabicyclo[3.2.0]heptan-7-one] here?
A: 0.333 µg/mL (≈ 1.71 µM)

Q: With `O=C(CO)NC[C@@H]1CN2C(=O)C[C@H]2O1` (racemic) [Example 12, (3RS,5RS)-3-[N-(Hydroxyacetyl)aminomethyl]-4-oxa-1-azabicyclo[3.2.0]heptan-7-one] as the molecule, how does the IC50 read?
A: 0.125 µg/mL (≈ 0.624 µM)

Q: `C=CCCC(=O)NC[C@@H]1CN2C(=O)C[C@H]2O1` (racemic) [Example 19, (3RS,5RS)-3-[N-(4-Pentenoyl)aminomethyl]-4-oxa-1-azabicyclo[3.2.0]heptan-7-one] was tested. Which IC50 did it give?
A: 0.266 µg/mL (≈ 1.19 µM)

Q: With `N#Cc1ccc(C(=O)NC[C@@H]2CN3C(=O)C[C@H]3O2)cc1` (racemic) [Example 30, (3RS,5RS)-3-[N-(4-Cyanobenzoyl)aminomethyl]-4-oxa-1-azabicyclo[3.2.0]heptan-7-one] as the molecule, how does the IC50 read?
A: 0.378 µg/mL (≈ 1.39 µM)

Q: How did the IC50 turn out when `C[C@H](N)C(=O)NCC1CN2C(=O)CC2O1` (stereo partly drawn) [Example 50B, (3RS,5RS)-3-N-(L-2-Aminopropanoyl)aminomethyl-4-oxa-1-azabicyclo[3.2.0]heptan-7-one hydrochloride] was run?
A: 0.657 µg/mL

Q: Which IC50 does the source give for `O=C(NC[C@@H]1CN2C(=O)C[C@H]2O1)c1cc(F)c(F)cc1F` (racemic) [Example 29, (3RS,5RS)-3-[N-(2,4,5-Trifluorobenzoyl)aminomethyl]-4-oxa-1-azabicyclo[3.2.0]heptan-7-one] here?
A: 0.535 µg/mL (≈ 1.78 µM)

Q: For `COc1ccc(C(=O)NC[C@@H]2CN3C(=O)C[C@H]3O2)cc1` (racemic) [Example 25, (3RS,5RS)-3-[N-(4-Methoxybenzoyl)aminomethyl]-4-oxa-1-azabicyclo[3.2.0]heptan-7-one], which IC50 is on record?
A: 0.255 µg/mL (≈ 0.923 µM)

Q: Which IC50 does the source give for `CC(=O)NC[C@@H]1CN2C(=O)C[C@H]2O1` [Example 3, (3R,5R)-3-(N-Acetylaminomethyl)-4-oxa-1-azabicyclo[3.2.0]heptan-7-one] here?
A: 3.15 µg/mL (≈ 17.1 µM)

Q: With `[N-]=[N+]=NCCCCCC(=O)NC[C@@H]1CN2C(=O)C[C@H]2O1` (racemic) [Example 15, (3RS,5RS)-3-[N-(6-Azidohexanoyl)aminomethyl]-4-oxa-1-azabicyclo[3.2.0]heptan-7-one] as the molecule, how does the IC50 read?
A: 0.254 µg/mL (≈ 0.903 µM)

Q: `O=C(NC[C@@H]1CN2C(=O)C[C@H]2O1)c1cccnc1` (racemic) [Example 32, (3RS,5RS)-3-[N-[(Pyridin-3-yl)carbonyl]aminomethyl]-4-oxa-1-azabicyclo[3.2.0]heptan-7-one] was tested. Which IC50 did it give?
A: 0.78 µg/mL (≈ 3.15 µM)

Q: How did the IC50 turn out when `CC(=O)N[C@@H](C(=O)OC[C@H]1CN2C(=O)C[C@@H]2O1)C(C)C` (mixture of isomers) [Example 61, (3RS,5SR)-3-(D-2-Acetylamino-3-methylbutyryl)oxymethyl-4-oxa-1-azabicyclo[3.2.0]heptan-7-one] was run?
A: 0.385 µg/mL

Q: With `O=C(Cn1ccnn1)NC[C@@H]1CN2C(=O)C[C@H]2O1` (racemic) [Example 10, (3RS,5RS)-3-[N-(1,2,3-Triazole-1-yl)acetylaminomethyl]-4-oxa-1-azabicyclo[3.2.0]heptan-7-one] as the molecule, how does the IC50 read?
A: 0.282 µg/mL (≈ 1.12 µM)

Q: Which IC50 does the source give for `O=COCCCCCC(=O)NC[C@@H]1CN2C(=O)C[C@H]2O1` (racemic) [Example 14, (3RS,5RS)-3-[N-(6-Formyloxyhexanoyl)aminomethyl]-4-oxa-1-azabicyclo[3.2.0]heptan-7-one] here?
A: 0.243 µg/mL (≈ 0.855 µM)

Q: How did the IC50 turn out when `COc1ccc(C(=O)NC[C@@H]2CN3C(=O)C[C@H]3O2)cc1OC` (racemic) [Example 26, (3RS,5RS)-3-[N-(3,4-Dimethoxybenzoyl)aminomethyl]-4-oxa-1-azabicyclo[3.2.0]heptan-7-one] was run?
A: 0.249 µg/mL (≈ 0.813 µM)

Q: `CC(C)C(=O)NC[C@@H]1CN2C(=O)C[C@H]2O1` (racemic) [Example 5, (3RS,5RS)-3-[N-(2-Methylpropanoyl)aminomethyl]-4-oxa-1-azabicyclo[3.2.0]heptan-7-one] was tested. Which IC50 did it give?
A: 0.181 µg/mL (≈ 0.853 µM)

Q: For `CC(=O)N[C@@H](CCCCNC(=O)OCc1ccccc1)C(=O)OCC1CN2C(=O)CC2O1` (stereo partly shown) [Example 78], which IC50 is on record?
A: 3.38 µg/mL (≈ 7.55 µM)

Q: For `N[C@@H](CO)C(=O)NCC1CN2C(=O)CC2O1` (stereo partly drawn) [Example 76B, (3RS,5RS)-3-[N-(L-2-Amino-3-hydroxypropanoyl)aminomethyl]-4-oxa-1-azabicyclo[3.2.0]heptan-7-one hydrochloride], which IC50 is on record?
A: 8.81 µg/mL

Q: Which IC50 does the source give for `[N-]=[N+]=NCC(=O)NC[C@@H]1CN2C(=O)C[C@H]2O1` (racemic) [Example 9, (3RS,5RS)-3-[N-(Azidoacetyl)aminomethyl]-4-oxa-1-azabicyclo[3.2.0]heptan-7-one] here?
A: 0.296 µg/mL (≈ 1.31 µM)

Q: `Cc1ccc(S(=O)(=O)NC[C@H]2CN3C(=O)C[C@H]3O2)cc1` (racemic) [Example 36, (3RS,5RS)-3-[N-(4-Toluenesulfonyl)aminomethyl]-4-oxa-1-azabicyclo[3.2.0]heptan-7-one] was tested. Which IC50 did it give?
A: 0.338 µg/mL (≈ 1.14 µM)

Q: Which IC50 does the source give for `O=C(N[C@@H](CO)C(=O)OCC1CN2C(=O)CC2O1)OCc1ccccc1` (stereo partly drawn) [Example 70, (3RS,5SR)-3-(L-2-N-Benzyloxycarbonylamino-3-hydroxypropanyl)oxymethyl-4-oxa-1-azabicyclo[3.2.0]heptan-7-one] here?
A: 0.352 µg/mL (≈ 0.966 µM)

Q: `O=C(CCCCCn1ccnn1)NC[C@@H]1CN2C(=O)C[C@H]2O1` (racemic) [Example 16, (3RS,5RS)-3-[N-[(1,2,3-Triazol-1-yl)hexanoyl]aminomethyl]-4-oxa-1-azabicyclo[3.2.0]heptan-7-one] was tested. Which IC50 did it give?
A: 0.318 µg/mL (≈ 1.03 µM)

Q: With `C[C@@H](NC(=O)OCc1ccccc1)C(=O)N[C@@H](COCc1ccccc1)C(=O)OCC1CN2C(=O)CC2O1` (stereo partly drawn) [Example 73, (3RS,5R)-3-[L-2-N-(D-2-N-Benzyloxycarbonylaminopropanoyl)amino-3-benzyloxypropanoyl]oxymethyl-4-oxa-1-azabicyclo[3.2.0]heptan-7-one] as the molecule, how does the IC50 read?
A: 2.22 µg/mL (≈ 4.22 µM)

Q: For `O=COCC(=O)NC[C@@H]1CN2C(=O)C[C@H]2O1` (racemic) [Example 11, (3RS,5RS)-3-[N-(Formyloxyacetyl)aminomethyl]-4-oxa-1-azabicyclo[3.2.0]heptan-7-one], which IC50 is on record?
A: 0.147 µg/mL (≈ 0.644 µM)

Q: With `O=C1C[C@H]2O[C@@H](CNS(=O)(=O)c3ccc(Cl)cc3)CN12` (racemic) [Example 37, (3RS,5RS)-3-[N-(4-Chlorobenzenesulfonyl)aminomethyl]-4-oxa-1-azabicyclo[3.2.0]heptan-7-one] as the molecule, how does the IC50 read?
A: 0.484 µg/mL (≈ 1.53 µM)

Q: Which IC50 does the source give for `N[C@@H](CC(=O)O)C(=O)N[C@@H](Cc1ccccc1)C(=O)NCC1CN2C(=O)CC2O1` (stereo partly drawn) [Example 64B, (3RS,5RS)-3-N-[L-2-N-(L-2-Amino-3-carboxypropanoyl)amino-3-phenylpropanoyl]aminomethyl-4-oxa-1-azabicyclo[3.2.0]heptan-7-one] here?
A: 2.65 µg/mL (≈ 6.55 µM)

Q: How did the IC50 turn out when `O=C(NC[C@@H]1CN2C(=O)C[C@H]2O1)OCc1ccccc1` (racemic) [Example 21, (3RS,5RS)-3-[N-(Benzyloxycarbonyl)aminomethyl]-4-oxa-1-azabicyclo[3.2.0]heptan-7-one] was run?
A: 0.34 µg/mL (≈ 1.23 µM)

Q: With `O=C(NC[C@@H]1CN2C(=O)C[C@H]2O1)c1ccc(F)cc1` (racemic) [Example 27, (3RS,5RS)-3-[N-(4-Fluorobenzoyl)aminomethyl]-4-oxa-1-azabicyclo[3.2.0]heptan-7-one] as the molecule, how does the IC50 read?
A: 0.24 µg/mL (≈ 0.908 µM)

Q: For `O=C(NC[C@@H]1CN2C(=O)C[C@H]2O1)c1ccc(O)cc1` (racemic) [Example 24, (3RS,5RS)-3-[N-(4-Hydroxybenzoyl)aminomethyl]-4-oxa-1-azabicyclo[3.2.0]heptan-7-one], which IC50 is on record?
A: 0.276 µg/mL (≈ 1.05 µM)

Q: How did the IC50 turn out when `O=C(NC[C@@H]1CN2C(=O)C[C@H]2O1)c1cc(F)ccc1F` (racemic) [Example 28, (3RS,5RS)-3-[N-(2,5-Difluorobenzoyl)aminomethyl]-4-oxa-1-azabicyclo[3.2.0]heptan-7-one] was run?
A: 0.379 µg/mL (≈ 1.34 µM)

Q: Which IC50 does the source give for `CC(=O)NCCCCCC(=O)NC[C@@H]1CN2C(=O)C[C@H]2O1` (racemic) [Example 17, (3RS,5RS)-3-[N-(6-Acetylaminohexanoyl)aminomethyl]-4-oxa-1-azabicyclo[3.2.0]heptan-7-one] here?
A: 0.439 µg/mL (≈ 1.48 µM)

Q: For `C[C@@H](NC(=O)OCc1ccccc1)C(=O)N[C@@H](CO)C(=O)OCC1CN2C(=O)CC2O1` (stereo partly drawn) [Example 71, (3RS,5SR)-3-[L-2-N-(D-2-N-Benzyloxycarbonylaminopropanoyl)amino-3-hydroxypropanoyl]oxymethyl-4-oxa-1-azabicyclo[3.2.0]heptan-7-one], which IC50 is on record?
A: 0.549 µg/mL (≈ 1.26 µM)

Q: For `O=C(CCCCCBr)NC[C@@H]1CN2C(=O)C[C@H]2O1` (racemic) [Example 13, (3RS,5RS)-3-[N-(6-Bromohexanoyl)aminomethyl]-4-oxa-1-azabicyclo[3.2.0]heptan-7-one], which IC50 is on record?
A: 0.491 µg/mL (≈ 1.54 µM)

Q: For `O=C(N[C@@H](COCc1ccccc1)C(=O)OCC1CN2C(=O)CC2O1)OCc1ccccc1` (stereo partly drawn) [Example 72, (3RS,5SR)-3-L-(2-N-Benzyloxycarbonylamino-3-benzyloxypropanoyl)oxymethyl-4-oxa-1-azabicyclo[3.2.0]heptan-7-one], which IC50 is on record?
A: 1.67 µg/mL (≈ 3.67 µM)

Q: `O=C(O)CCC(=O)NC[C@H]1CN2C(=O)C[C@@H]2O1` (relative stereo) [Example 18, Sodium{N-[(3RS,5RS)-7-oxo-1-aza-4-oxabicyclo[3.2.0]hept-3-yl]methylamino}succinate] was tested. Which IC50 did it give?
A: 2.85 µg/mL
